From patent US11230526B1, “Cylcoalkenyl derivatives useful as agonists of the GPR120 and/or GPR40 receptors” (Janssen Pharmaceutica NV, priority 2018, dated 2022)

Experiments:
Assay type in all cases: cell-based
Human GPR120 short form = target: T1, Human GPR120 short form (Homo sapiens, UniProt Q5NUL3); assay: Human GPR120 calcium flux assay, Procedure Calcium B (4200 cells/well)
T1 construct: expressed in transfected cells
T1 sequence (Q5NUL3 1-361): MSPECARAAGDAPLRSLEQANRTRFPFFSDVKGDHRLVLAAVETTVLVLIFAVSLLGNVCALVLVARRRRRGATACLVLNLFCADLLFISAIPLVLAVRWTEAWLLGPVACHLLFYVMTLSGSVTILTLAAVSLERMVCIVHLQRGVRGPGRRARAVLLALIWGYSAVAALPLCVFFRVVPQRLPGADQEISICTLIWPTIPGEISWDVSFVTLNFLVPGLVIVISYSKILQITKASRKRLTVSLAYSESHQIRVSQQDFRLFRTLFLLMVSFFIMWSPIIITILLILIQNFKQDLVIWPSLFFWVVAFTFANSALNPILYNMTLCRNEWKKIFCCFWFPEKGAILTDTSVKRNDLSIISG
Procedure, shortened: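 HEK293 cells stably expressing human GPR120 (NM_001195755.1), 4200 cells/well, starved 1 h and loaded with Fluo-4 NW plus probenecid. Ligand-evoked calcium flux read on FLIPR for 300 s after a 10 s baseline. RFU = Fmax−Fmin; EC50 from four-parameter concentration-response fit.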

human GPR40 = target: T2, human GPR40 (Homo sapiens, UniProt O14842); assay: GPR40 calcium flux assay, human GPR40; conditions: HEK293 cells stably expressing GPR40; table does not say human or rat
T2 construct: expressed in transfected cells
Procedure, shortened: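 Cells preincubated 1 h at 37° C. in HBSS, 20 mM HEPES, 0.1% BSA, then Fluo 8 calcium dye 30 min at 37° C. and 15 min at room temperature.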

[1] = target: T3, long form of human GPR120 (Homo sapiens, UniProt Q5NUL3); assay: Human GPR120 DiscoveRx PathHunter Beta-Arrestin assay, Procedure β-arrestin A
T3 construct: host or cells: PathHunter CHO-K1 GPR120 β-Arrestin Cell Line
Excerpt: Human GPR120 DiscoveRx PathHunter® Beta-Arrestin Assay Assay Principle:
The binding of an agonist (medium/long chain fatty acids or small molecule agonists) to the G-protein-coupled receptor GPR120 activates phospholipase C, leading to release of intracellular Ca^+2 through the generation of inositol 1,4,5-trisphosphate (InsP3 or IP3). GPR120 activation can also trigger intracellular signaling via recruitment of Beta-Arrestin. In the present method, agonist-induced activation of the human GPR120 receptor is monitored through the use of PathHunter® CHO-K1 GPR120 Beta-Arrestin Cell Line engineered by DiscoveRx, as detailed below. The cell lines are designed to co-express both the ProLink/Enzyme Donor (PK)-tagged GPCR and the Enzyme […] (EA)-tagged Beta-Arrestin fusion proteins. Upon GPR120 receptor stimulation/activation, the EA-tagged Beta-Arrestin portion is translocated to the tagged receptor, where the two enzyme fragments are brought within close proximity. Under these conditions, these fragments can interact and form an active Beta-gal enzyme complex through Enzyme Fragment Complementation (EFC). This active Beta-gal complex can enzymatically hydrolyse the substrate to produce a detectable light signal; therefore, activation as a function of agonist concentration can be expressed as an EC50 value to determine relative compound activities. This in vitro assay therefore serves to assess compound agonist activity of the GPR120.
In Procedure β-arrestin A, the cell used were PathHunter® CHO-K1 GPR120 β-Arrestin Cell Line, expressing the long form of human GPR120 (Genbank accession number NM_181745), with 3000 cells per well.
The selected CHO-K1 GPR120 β-Arrestin cells were cultured in Ham's F12 media supplemented with 10% fetal bovine serum (FBS), 1% Glutamine, 1×p/s, 800 μg/mL G418 and 300 μg/mL Hygromycin B (for selection). Cell stocks were maintained and grown in a sub-confluent state using standard cell culture procedures. The day before the experiment, the cells were harvested with non-enzymatic cell dissociation buffer and re-suspended in complete growth media at the desired concentration. A Corning 384-plate was then seeded with the proper number of cells in a volume of 25 μL, per well. The seeded plates were incubated overnight at 37° C.
On the day of the experiment, the Assay Buffer containing (a) HBSS with Ca^++ and Mg^++, (b) 20 mM HEPES, and (c) 0.1% BSA stabilizer (pH 7.4) was prepared. The growth medium was gently removed from the cell plates and 20 μL of Assay Buffer added to each well. The plate was then incubated at 37° C. for 60 min. Test compounds were serially diluted in Assay Buffer to desired concentrations (more particularly to one or more of the following μM concentrations: 25, 12.5, 6.25, 3.12, 1.56, 0.78, 0.39, 0.19, 0.10, 0.05, 0.02, 0.01). Five μL of compound dilution was then added to each well and the plate incubated at 37° C. for 90 min. The detection reagents were prepared according to the manufacture's instruction. Twelve μL of the detection reagents were added to each well and the plate incubated at room temperature for 60 min.
The plates were read on an EnVision instrument, using Protocol name: Luminescence, Plate type: 384 Costar, Measurement height: 3 mm, Measurement time: 1 s, Aperture: 384 Plate aperture. The % Activity relative to the positive control was calculated using the following equation:
The % Activity values were plotted versus the concentration of test compound and fitted to a sigmoidal dose-response curve with a Hill slope=1 (fixed value) using nonlinear regression with GraphPad Prism 5.0 to calculate the EC50 values. The Fitting Equation was: Y=Bottom+(Top-Bottom)/(1+10^((Log EC50−X)*HillSlope)), where X is the log of the concentration and Y is the response.

T2 sequence (O14842 whole entry): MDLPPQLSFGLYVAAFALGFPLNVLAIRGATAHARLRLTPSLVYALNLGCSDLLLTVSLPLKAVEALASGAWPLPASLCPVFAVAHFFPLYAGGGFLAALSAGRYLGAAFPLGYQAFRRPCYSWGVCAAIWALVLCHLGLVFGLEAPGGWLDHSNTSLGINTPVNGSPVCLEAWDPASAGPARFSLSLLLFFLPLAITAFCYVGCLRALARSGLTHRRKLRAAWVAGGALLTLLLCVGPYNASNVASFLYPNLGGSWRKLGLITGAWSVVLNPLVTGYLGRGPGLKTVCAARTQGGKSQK
T3 sequence (Q5NUL3 1-377 isoform Q5NUL3-1): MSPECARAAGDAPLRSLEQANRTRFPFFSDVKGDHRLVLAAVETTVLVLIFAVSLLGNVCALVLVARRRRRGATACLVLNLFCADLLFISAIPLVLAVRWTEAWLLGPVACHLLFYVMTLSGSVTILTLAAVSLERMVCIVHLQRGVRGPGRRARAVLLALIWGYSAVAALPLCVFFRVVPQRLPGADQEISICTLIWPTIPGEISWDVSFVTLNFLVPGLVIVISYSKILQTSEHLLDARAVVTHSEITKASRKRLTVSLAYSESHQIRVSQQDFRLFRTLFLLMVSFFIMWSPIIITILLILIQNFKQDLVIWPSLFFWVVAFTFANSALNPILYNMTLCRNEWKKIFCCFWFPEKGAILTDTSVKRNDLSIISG
T3 sequence (P32121 whole entry partner): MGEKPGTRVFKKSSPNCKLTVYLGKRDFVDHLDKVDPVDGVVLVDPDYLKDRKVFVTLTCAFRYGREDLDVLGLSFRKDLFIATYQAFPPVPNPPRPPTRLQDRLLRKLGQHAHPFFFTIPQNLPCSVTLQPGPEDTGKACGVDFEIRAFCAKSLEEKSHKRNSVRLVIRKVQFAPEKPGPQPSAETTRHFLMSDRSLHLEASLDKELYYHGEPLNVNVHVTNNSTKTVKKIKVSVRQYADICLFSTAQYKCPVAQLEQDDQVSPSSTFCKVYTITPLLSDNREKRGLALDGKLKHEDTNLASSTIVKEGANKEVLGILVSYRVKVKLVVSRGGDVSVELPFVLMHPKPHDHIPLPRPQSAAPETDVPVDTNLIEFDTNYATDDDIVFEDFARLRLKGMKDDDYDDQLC

Compound | EC50 (Human GPR120 short form) [nM] | EC50 (human GPR40) [nM] | EC50 [1] [nM]
O=C(O)CCc1cc(F)c(OCC2=C(c3ccc(F)cc3)CC(F)(F)C2)c(F)c1 [Compound 183, 3-[4-[[4,4-difluoro-2-(4-fluorophenyl)cyclopenten-1-yl]methoxy]-3,5-difluoro-phenyl]Propanoic Acid] | 51 | > 5000 | 185
O=C(O)CCc1cc(F)c(OCC2=C(c3ccc(F)c(F)c3)CC(F)(F)C2)c(F)c1 [Compound 184, 3-[4-[[2-(3,4-difluorophenyl)-4,4-difluoro-cyclopenten-1-yl]methoxy]-3,5-difluoro-phenyl]Propanoic Acid] | 91 | > 5000 | 431
N#CC1CC(COc2c(F)cc(CCC(=O)O)cc2F)=C(c2ccc(Cl)cc2)C1 (stereo not drawn) [Compound 185, 3-[4-[[2-(4-chlorophenyl)-4-cyano-cyclopenten-1-yl]methoxy]-3,5-difluoro-phenyl]Propanoic Acid] | 360 | 3440 | 1440
O=C(O)CCc1ccc(OCC2=C(c3ccc(F)cc3)CC(F)C2)cc1C(F)(F)F (stereo not drawn) [Compound 186, 3-[4-[[4-fluoro-2-(4-fluorophenyl)cyclopenten-1-yl]methoxy]-2-(trifluoromethyl)phenyl]Propanoic Acid] | 453 | 382 | 1790
COC1CC(COc2c(F)cc(CCC(=O)O)cc2F)=C(c2ccc(Cl)cc2)C1 (stereo not drawn) [Compound 187, 3-[4-[[2-(4-chlorophenyl)-4-methoxy-cyclopenten-1-yl]methoxy]-3,5-difluoro-phenyl]Propanoic Acid] | 137 | 3320 | 596
O=C(O)CCc1ccc(OCC2=C(c3ccc(F)cc3)CC(F)(F)C2)cc1C(F)(F)F [Compound 188, 3-[4-[[4,4-difluoro-2-(4-fluorophenyl)cyclopenten-1-yl]methoxy]-2-(trifluoromethyl)phenyl]Propanoic Acid] | 411 | 142 | 548
Cc1ncc(C2=C(COc3ccc(CCC(=O)O)cc3C)CC(F)(F)C2)s1 [Compound 199, 3-[4-[[4,4-difluoro-2-(2-methylthiazol-5-yl)cyclopenten-1-yl]methoxy]-3-methyl-phenyl]Propanoic Acid] | 210 | 1470 | 369
O=C(O)CCc1ccc(OCC2=C(c3ccc(F)cc3)CC(F)(F)C2)c(Cl)c1 [Compound 203, 3-[3-chloro-4-[[4,4-difluoro-2-(4-fluorophenyl)cyclopenten-1-yl]methoxy]phenyl]Propanoic Acid] | 80 | > 5000 | 56
Cc1cc(CCC(=O)O)cc(F)c1OCC1=C(c2ccc(F)cc2)CC(F)(F)C1 [Compound 204, 3-[4-[[4,4-difluoro-2-(4-fluorophenyl)cyclopenten-1-yl]methoxy]-3-fluoro-5-methyl-phenyl]Propanoic Acid] | 125 | > 5000 | 359
Cc1c(CCC(=O)O)ccc(OCC2=C(c3ccco3)CCC2)c1C [Compound 210, 3-[4-[[2-(2-furyl)cyclopenten-1-yl]methoxy]-2,3-dimethyl-phenyl]Propanoic Acid] | 137 | > 5000 | 110
O=C(O)CCc1ccc(OCC2=C(c3ccc(F)cc3)CC(F)(F)C2)c(F)c1 [Compound 214, 3-[4-[[4,4-difluoro-2-(4-fluorophenyl)cyclopenten-1-yl]methoxy]-3-fluoro-phenyl]Propanoic Acid] | 78 | > 5000 | 84
O=C(O)CCc1cc(F)c(OCC2=C(c3cccc(F)c3)CC(F)(F)C2)c(F)c1 [Compound 215, 3-[4-[[4,4-difluoro-2-(3-fluorophenyl)cyclopenten-1-yl]methoxy]-3,5-difluoro-phenyl]Propanoic Acid] | 75 | > 5000 | 282
O=C(O)CCc1cc(F)c(OCC2=C(c3ccc(F)cc3F)CC(F)(F)C2)c(F)c1 [Compound 216, 3-[4-[[2-(2,4-difluorophenyl)-4,4-difluoro-cyclopenten-1-yl]methoxy]-3,5-difluoro-phenyl]Propanoic Acid] | 75 | > 5000 | 169

Stronger by EC50 (Human GPR120 short form), values ahead:

EC50 (Human GPR120 short form) [nM] | EC50 (human GPR40) [nM] | EC50 [1] [nM] | Compound
49 | > 5000 | 40 | Cc1c(CCC(=O)O)ccc(OCC2=C(c3ccc(F)cc3F)CC(F)(F)C2)c1C [Compound 173, 3-[4-[[2-(2,4-difluorophenyl)-4,4-difluoro-cyclopenten-1-yl]methoxy]-2,3-dimethyl-phenyl]Propanoic Acid]
42 | > 5000 | 32 | Cc1ccc(C2=C(COc3ccc(CCC(=O)O)c(C)c3C)CC(F)(F)C2)cc1F [Compound 172, 3-[4-[[4,4-difluoro-2-(3-fluoro-4-methyl-phenyl)cyclopenten-1-yl]methoxy]-2,3-dimethyl-phenyl]Propanoic Acid]
32 | > 5000 | 104 | Cc1cc(CCC(=O)O)ccc1OCC1=C(c2ccc(F)cc2F)CC(F)(F)C1 [Compound 182, 3-[4-[[2-(2,4-difluorophenyl)-4,4-difluoro-cyclopenten-1-yl]methoxy]-3-methyl-phenyl]Propanoic Acid]
31 | > 5000 | 289 | Cc1cc(CCC(=O)O)ccc1OCC1=C(c2ccc(F)c(F)c2)CC(F)(F)C1 [Compound 179, 3-[4-[[2-(3,4-difluorophenyl)-4,4-difluoro-cyclopenten-1-yl]methoxy]-3-methyl-phenyl]Propanoic Acid]
30 | > 5000 | 133 | Cc1cc(CCC(=O)O)ccc1OCC1=C(c2ccccc2)CC(F)(F)C1 [Compound 193, 3-[4-[(4,4-difluoro-2-phenyl-cyclopenten-1-yl)methoxy]-3-methyl-phenyl]Propanoic Acid]
27 | > 5000 | 259 | Cc1cc(CCC(=O)O)ccc1OCC1=C(c2cccc(F)c2)CC(F)(F)C1 [Compound 191, 3-[4-[[4,4-difluoro-2-(3-fluorophenyl)cyclopenten-1-yl]methoxy]-3-methyl-phenyl]Propanoic Acid]
26 | > 5000 | 78 | Cc1cc(CCC(=O)O)ccc1OCC1=C(c2ccc(F)cc2)CC(F)(F)C1 [Compound 180, 3-[4-[[4,4-difluoro-2-(4-fluorophenyl)cyclopenten-1-yl]methoxy]-3-methyl-phenyl]Propanoic Acid]
